Structures can show the parent of a compound that is named as a salt.
Tests used:
human CRF receptor = biological target: T1, human CRF receptor (Homo sapiens, UniProt P34998); assay: Corticotropin-releasing factor (CRF) receptor binding experiment with 125I-CRF; details: human CRF receptor expressing CHO cellular membrane fraction; for inhibition at 1 µM: 1000 nM test compound, 50 pM 125I-CRF, read-out: Binding inhibitory rate (%) 1000 nM; for IC50: 125I-CRF, GraphPad Prism
T1 construct: expressed in transfected cells; host or cells: CHO cells (membrane fraction)
T1 sequence (P34998 24-415): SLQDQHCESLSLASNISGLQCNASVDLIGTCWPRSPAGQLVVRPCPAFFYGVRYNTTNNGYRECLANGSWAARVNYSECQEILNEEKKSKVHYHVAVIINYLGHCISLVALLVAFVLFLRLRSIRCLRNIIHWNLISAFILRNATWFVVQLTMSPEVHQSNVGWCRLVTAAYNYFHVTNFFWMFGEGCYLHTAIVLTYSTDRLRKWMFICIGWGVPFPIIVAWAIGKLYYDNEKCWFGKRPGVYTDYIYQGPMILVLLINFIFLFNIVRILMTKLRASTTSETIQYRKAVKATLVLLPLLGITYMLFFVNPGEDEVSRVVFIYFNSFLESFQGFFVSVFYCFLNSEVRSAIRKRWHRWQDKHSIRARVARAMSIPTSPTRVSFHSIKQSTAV
Protocol: A receptor binding experiment was carried out using a human CRF receptor expressing CHO cellular membrane fraction and ovine CRF, [^125I]-tyr^0 (^125I-CRF). 1000 nM of a test compound was incubated with 1 μg of human CRF receptor expressing CHO cellular membrane fraction and 50 pM of ^125I-CRF in a binding assay buffer (50 mM Tris-HCl, 5 mM EDTA, 10 mM MgCl2, 0.05% CHAPS, 0.1% BSA, 0.5 mM PMSF, 0.1 μg/ml pepstatin, 20 μg/ml leupeptin, pH 7.5). In addition, for measuring nonspecific binding (NSB), 0.1 μM unlabelled human Urocortin was incubated with 1 μg of human CRF receptor expressing CHO cellular membrane fraction and 50 pM of ^125I-CRF in a binding assay buffer. After a binding reaction was carried out at room temperature for 1.5 hour, the membrane was entrapped on a glass filter (UniFilter plate GF-C/Perkin Elmer) by suction filtration using a cell harvester (Perkin Elmer), and washed with ice-cooled 50 mM Tris-HCl (pH 7.5). After drying the glass filter, a liquid scintillation cocktail (Microscinti 0, Perkin Elmer) was added, and the radioactivity of ^125I-CRF remaining on a glass filter was measured using Topcount (Perkin Elmer).
(TB−SB)/(TB−NSB)×100 (SB: radioactivity when a compound is added, TB: maximum binding radioactivity, NSB: nonspecific binding radioactivity) was calculated to obtain a binding inhibitory rate under the presence of 1,000 nM of each test substances. The IC50 values were calculated by using GraphPad Prism software.

CCCC(CCC)c1cccc2nc(Nc3c(C)cc(Br)cc3OC)n(C)c12 [Example 1, N-(4-Bromo-2-methoxy-6-methylphenyl)-1-methyl-7-(1-propylbutyl)-1H-benzimidazol-2-amine Hydrochloride]
inhibition at 1 µM (human CRF receptor): > 80%

CCCC(CC)c1nccc2nc(Nc3c(C)cc(Br)cc3OC)n(C)c12 (stereo not shown) [Example 9, N-(4-Bromo-2-methoxy-6-methylphenyl)-4-(1-ethylbutyl)-3-methyl-3H-imidazo[4,5-c]pyridin-2-amine]
inhibition at 1 µM (human CRF receptor): > 80%

CCc1ccccc1-c1cccc2nc(Nc3c(C)cc(Cl)cc3OC)n(C)c12 [Example 15, N-(4-Chloro-2-methoxy-6-methylphenyl)-7-(2-ethylphenyl)-1-methyl-1H-benzimidazol-2-amine]
IC50 (human CRF receptor): 0.01 to 0.05 µM

CNCc1ccccc1-c1cccc2nc(Nc3c(C)cc(Cl)cc3OC)n(C)c12 [Example 64, N-(4-Chloro-2-methoxy-6-methylphenyl)-1-methyl-7-{2-[(methylamino)methyl]phenyl}-1H-benzimidazol-2-amine]
inhibition at 1 µM (human CRF receptor): > 80%

CCc1cc(CC)n(-c2cccc3nc(Nc4c(C)cc(Br)cc4OC)n(C)c23)n1 [Example 66, N-(4-Bromo-2-methoxy-6-methylphenyl)-7-(3,5-diethyl-1H-pyrazol-1-yl)-1-methyl-1H-benzimidazol-2-amine]
IC50 (human CRF receptor): 0.01 to 0.05 µM

COc1cc(Br)cc(C)c1Nc1nc2cccc(-n3c(C)ccc3C)c2n1C [Example 69, N-(4-Bromo-2-methoxy-6-methylphenyl)-7-(2,5-dimethyl-1H-pyrrol-1-yl)-1-methyl-1H-benzimidazol-2-amine]
inhibition at 1 µM (human CRF receptor): > 80%

CCC(CC)c1ccc(Cl)c2nc(Nc3c(C)cc(Br)cc3OC)n(C)c12 [Example 77, N-(4-Bromo-2-methoxy-6-methylphenyl)-4-chloro-7-(1-ethylpropyl)-1-methyl-1H-benzimidazol-2-amine]
inhibition at 1 µM (human CRF receptor): > 80% | IC50 (human CRF receptor): 0.01 to 0.05 µM | melting point: 218 to 220 °C

CCC(CC)c1ccc(Cl)c2nc(Nc3ccc(Cl)cc3Br)n(C)c12 [Example 84, N-(2-Bromo-4-chlorophenyl)-4-chloro-7-(1-ethylpropyl)-1-methyl-1H-benzimidazol-2-amine]
inhibition at 1 µM (human CRF receptor): > 80% | melting point: 136 to 138 °C

CCC(CC)c1ccc(C)c2nc(Nc3c(C)cc(Cl)cc3OC)n(C)c12 [Example 101, N-(4-Chloro-2-methoxy-6-methylphenyl)-7-(1-ethylpropyl)-1,4-dimethyl-1H-benzimidazol-2-amine]
inhibition at 1 µM (human CRF receptor): > 80% | IC50 (human CRF receptor): < 0.01 µM

CCC(CC)c1ccc(Cl)c2nc(Nc3c(C)cc(Cl)cc3OC)n(CCO)c12 [Example 103, 2-[4-Chloro-2-[(4-chloro-2-methoxy-6-methylphenyl)amino]-7-(1-ethylpropyl)-1H-benzimidazol-1-yl]ethanol]
inhibition at 1 µM (human CRF receptor): > 80%

CCC(CC)c1ccc(OC)c2nc(Oc3c(C)cc(Cl)cc3Cl)n(C)c12 [Example 145, 2-(2,4-Dichloro-6-methylphenoxy)-7-(1-ethylpropyl)-4-methoxy-1-methyl-1H-benzimidazole]
IC50 (human CRF receptor): < 0.01 µM | melting point: 130 to 131 °C

Reference: patent publication US8163935B2, “Fused heterocyclic compounds” (Takeda Pharmaceutical Company Limited, priority 2005, dated 2012)
